# Patent US20260248787A9, “MEDICAMENT FOR TREATING CANCER COMPRISING OPTICALLY ACTIVE AZABICYCLO RING DERIVATIVE” (Sumitomo Pharma Co., Ltd., priority 2023, published 2026)
# Read-outs that look alike come from different tables or passages of the source.
# Experiment: Phase 1/2 clinical study, plasma pharmacokinetic evaluation
# Assay type: in vivo, human
# Conditions: human, plasma, oral
# Method: In the present test of the present compound, PK samples have been collected in up to 24 patients dosed in dose groups of 40, 80, 100, and 120 mg BID Arm A, and in dose groups of 40 and 60 mg BID Arm B (Table 6). Large preliminary PK inter-patient variability was observed.
# (1) In the present study, PK samples have been collected in up to 42 patients dosed in dose groups of 40, 80, 100, 120, 140 and 200 mg BID Arm A, and in dose groups of 40, 60, 100, and 200 mg BID Arm B (Table 15).
# (2) In the present study, PK samples have been collected in patients dosed in dose groups of 40, 80, 100, 120, 140, 200, and 300 mg BID Arm A, and in dose groups of 40, 60, 100, 200, and 300 mg BID Arm B (Table 16).
# [1] = 100 mg, 100 mg BID Arm A, C2D1, N=1
# [2] = 100 mg, 100 mg BID Arm B, Cycle 1 Day 1, N=4, mean
# [3] = 100 mg, 100 mg BID Arm B, Cycle 2 Day 1, N=4, mean
# [4] = 100 mg, Cycle 1 Day 1, 100 mg BID Arm A (without azole), N=2, mean
# [5] = 100 mg, Cycle 1 Day 1, 100 mg BID Arm B (with azole), N=4, mean
# [6] = 100 mg, Cycle 2 Day 1, 100 mg BID Arm A (without azole), N=1
# [7] = 100 mg, Cycle 2 Day 1, 100 mg BID Arm B (with azole), N=4, mean
# [8] = 100 mg, Table 15 cut-off, 100 mg BID Arm A, Cycle 1 Day 1, N=2, mean
# [9] = 100 mg, Table 15 cut-off, 100 mg BID Arm A, Cycle 2 Day 1, N=1
# [10] = 120 mg, 120 mg BID Arm A, C1D1, N=6, mean
# [11] = 120 mg, 120 mg BID Arm A, C2D1, N=6, mean
# [12] = 120 mg, Cycle 1 Day 1, 120 mg BID Arm A (without azole), N=6, mean
# [13] = 120 mg, Cycle 2 Day 1, 120 mg BID Arm A (without azole), N=6, mean
# [14] = 120 mg, Table 15 cut-off, 120 mg BID Arm A, Cycle 1 Day 1, N=6, mean
# [15] = 120 mg, Table 15 cut-off, 120 mg BID Arm A, Cycle 2 Day 1, N=6, mean
# [16] = 140 mg, 140 mg BID Arm A, Cycle 1 Day 1, N=6 (incl. two patients with MDS), mean
# [17] = 140 mg, 140 mg BID Arm A, Cycle 2 Day 1, N=5 (incl. two patients with MDS), mean
# [18] = 140 mg, Cycle 1 Day 1, 140 mg BID Arm A (without azole), N=6 (two MDS patients included, one pt excluded), mean
# [19] = 140 mg, Cycle 2 Day 1, 140 mg BID Arm A (without azole), N=5 (two MDS patients included, one pt excluded), mean
# [20] = 140 mg, Cycle 2 Day 1, 140 mg BID Arm B (with azole), N=1
# [21] = 200 mg, 200 mg BID Arm A, Cycle 1 Day 1, N=4, mean
# [22] = 200 mg, 200 mg BID Arm B, Cycle 1 Day 1, N=6, mean
# [23] = 200 mg, 200 mg BID Arm B, Cycle 2 Day 1, N=2, mean
# [24] = 200 mg, Cycle 1 Day 1, 200 mg BID Arm A (without azole), N=5, mean
# [25] = 200 mg, Cycle 1 Day 1, 200 mg BID Arm B (with azole), N=11, mean
# [26] = 200 mg, Cycle 2 Day 1, 200 mg BID Arm A (without azole), N=3, mean
# [27] = 200 mg, Cycle 2 Day 1, 200 mg BID Arm B (with azole), N=5 (three patients excluded), mean
# [28] = 300 mg, Cycle 1 Day 1, 300 mg BID Arm A (without azole), N=4, mean
# [29] = 300 mg, Cycle 1 Day 1, 300 mg BID Arm B (with azole), N=3 (one patient pending re-assay), mean
# [30] = 300 mg, Cycle 2 Day 1, 300 mg BID Arm A (without azole), N=3, mean
# [31] = 300 mg, Cycle 2 Day 1, 300 mg BID Arm B (with azole), N=1 (one patient pending re-assay)
structure (smiles),measurement,setting,value
"C=C1C[C@@H]2CC[C@H]1[C@@H](C(=O)N1CCC3(CC1)CN(c1ncncc1Oc1ccc(F)cc1C(=O)N(C(C)C)C(C)C)C3)N2 [the present compound, 5-fluoro-2-[(4-{7-[(1S,3S,4R)-5-methylidene-2-azabicyclo[2.2.2]octane-3-carbonyl]-2,7-diazaspiro[3.5]nonan-2-yl}pyrimidin-5-yl)oxy]-N,N-di(propan-2-yl)benzamide]",Tmax,"100 mg, 100 mg BID Arm A, C1D1, N=2, mean",3 h
same,half-life,"100 mg, 100 mg BID Arm A, C1D1, N=2, mean, read-out: t1/2 (converted)",338 min
same,AUC(0-t),[1],6060 ng·h/mL
same,Cmax,[1],2840 ng/mL
same,Tmax,[1],1 h
same,half-life,"100 mg, 100 mg BID Arm A, C2D1, N=1, read-out: t1/2 (converted)",173 min
same,AUC(0-t),[2],5600 ng·h/mL
same,Cmax,[2],1650 ng/mL
same,AUC(0-t),[3],8350 ng·h/mL
same,Cmax,[3],1810 ng/mL
same,AUC(0-t),[4],4940 ng·h/mL
same,Cmax,[4],1380 ng/mL
same,AUC(0-t),[5],5600 ng·h/mL
same,Cmax,[5],1650 ng/mL
same,AUC(0-t),[6],6060 ng·h/mL
same,Cmax,[6],2840 ng/mL
same,AUC(0-t),[7],8350 ng·h/mL
same,Cmax,[7],1810 ng/mL
same,AUC(0-t),[8],4940 ng·h/mL
same,Cmax,[8],1380 ng/mL
same,AUC(0-t),[9],6060 ng·h/mL
same,Cmax,[9],2840 ng/mL
same,AUC(0-t),[10],6250 ng·h/mL
same,Cmax,[10],2280 ng/mL
same,Tmax,[10],1.25 h
same,half-life,"120 mg, 120 mg BID Arm A, C1D1, N=6, mean, read-out: t1/2 (converted)",172 min
same,AUC(0-t),[11],7860 ng·h/mL
same,Cmax,[11],1980 ng/mL
same,Tmax,[11],1.2 h
same,half-life,"120 mg, 120 mg BID Arm A, C2D1, N=6, mean, read-out: t1/2 (converted)",196 min
same,AUC(0-t),[12],6290 ng·h/mL
same,Cmax,[12],2320 ng/mL
same,AUC(0-t),[13],7970 ng·h/mL
same,Cmax,[13],1980 ng/mL
same,AUC(0-t),[14],6290 ng·h/mL
same,Cmax,[14],2320 ng/mL
same,AUC(0-t),[15],7970 ng·h/mL
same,Cmax,[15],1980 ng/mL
same,AUC(0-t),[16],3570 ng·h/mL
same,Cmax,[16],1480 ng/mL
same,AUC(0-t),[17],4200 ng·h/mL
same,Cmax,[17],1670 ng/mL
same,AUC(0-t),[18],3570 ng·h/mL
same,Cmax,[18],1480 ng/mL
same,AUC(0-t),"140 mg, Cycle 1 Day 1, 140 mg BID Arm B (with azole), N=2, mean",7000 ng·h/mL
same,AUC(0-t),[19],4200 ng·h/mL
same,Cmax,[19],1670 ng/mL
same,AUC(0-t),[20],5520 ng·h/mL
same,Cmax,[20],1770 ng/mL
same,AUC(0-t),[21],9650 ng·h/mL
same,Cmax,[21],3850 ng/mL
same,AUC(0-t),[22],21200 ng·h/mL
same,Cmax,[22],6260 ng/mL
same,AUC(0-t),[23],16700 ng·h/mL
same,Cmax,[23],4360 ng/mL
same,AUC(0-t),[24],12100 ng·h/mL
same,Cmax,[24],3870 ng/mL
same,AUC(0-t),[25],21200 ng·h/mL
same,Cmax,[25],5700 ng/mL
same,AUC(0-t),[26],12000 ng·h/mL
same,Cmax,[26],3850 ng/mL
same,AUC(0-t),[27],16800 ng·h/mL
same,Cmax,[27],4070 ng/mL
same,AUC(0-t),[28],15900 ng·h/mL
same,Cmax,[28],6070 ng/mL
same,AUC(0-t),[29],26000 ng·h/mL
same,Cmax,[29],5970 ng/mL
same,AUC(0-t),[30],12400 ng·h/mL
same,Cmax,[30],3060 ng/mL
same,AUC(0-t),[31],20500 ng·h/mL
same,Cmax,[31],4210 ng/mL
same,half-life,"Arm A (without azole), FIGS. 4A to 4D cut-off, read-out: Mean t1/2",120 to 360 min
same,half-life,"Arm A, 40-120 mg BID, read-out: Mean plasma t1/2",169 to 338 min
same,half-life,"Arm A, 40-200 mg BID (up to 42 patients), read-out: Mean apparent half-life",120 to 300 min
same,half-life,"Arm A, 40-300 mg BID, read-out: Mean apparent half-life",120 to 240 min
same,half-life,"Arm B (with azole), FIGS. 4A to 4D cut-off, read-out: Mean t1/2",180 to 420 min
same,half-life,"Arm B, 40-60 mg BID, read-out: Mean plasma t1/2",157 to 437 min
same,half-life,"Arm B, 40-200 mg BID (up to 42 patients), read-out: Mean apparent half-life",180 to 420 min
same,half-life,"Arm B, 40-300 mg BID, read-out: Mean apparent half-life",180 to 420 min
same,Tmax,"post dose, Arms A and B, first cut-off",≤ 2 h
